In patent publication US6737383B1, “Herbicidal oxadiazolidines” (priority 1999, dated 2004):

Columns and labels:
[1] = system: bedstraw; experiment: Test B pre/postemergence bedstraw; type: in vivo, Galium aparine
How it was run: (§1)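 Test chemicals in a non-phytotoxic solvent mixture with surfactant were sprayed preemergence onto planted seeds and postemergence onto plants 2 to 18 cm tall (1- to 4-leaf stage). After twelve to sixteen days in a greenhouse, injury was visually rated against untreated controls from 0 (no effect) to 10 (complete control).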

[2] = system: blackgrass; experiment: Test B pre/postemergence blackgrass; type: in vivo, Alopecurus myosuroides
How it was run: as §1

[3] = system: surinam grass; experiment: Test B pre/postemergence surinam grass; type: in vivo, Brachiaria decumbens
How it was run: as §1

[4] = system: corn; experiment: Test B pre/postemergence corn; type: in vivo, Zea mays
How it was run: as §1

[5] = system: crabgrass; experiment: Test B pre/postemergence crabgrass; type: in vivo, Digitaria sanguinalis
How it was run: as §1

[6] = system: pigweed; experiment: Test B pre/postemergence pigweed; type: in vivo, Amaranthus retroflexus
How it was run: as §1

[7] = system: rape; experiment: Test B pre/postemergence rape; type: in vivo, Brassica napus
How it was run: as §1

[8] = system: soybean; experiment: Test B pre/postemergence soybean; type: in vivo, Glycine max
How it was run: as §1

[9] = system: sugar beet; experiment: Test B pre/postemergence sugar beet; type: in vivo, Beta vulgaris
How it was run: as §1

[10] = system: velvetleaf; experiment: Test B pre/postemergence velvetleaf; type: in vivo, Abutilon theophrasti
How it was run: as §1

[11] = system: wheat; experiment: Test B pre/postemergence wheat; type: in vivo, Triticum aestivum
How it was run: as §1

[12] = system: wild oat; experiment: Test B pre/postemergence wild oat; type: in vivo, Avena fatua
How it was run: as §1

[13] = system: purple nutsedge; experiment: Test B pre/postemergence purple nutsedge; type: in vivo, Cyperus rotundus
How it was run: as §1

[14] = system: rice; experiment: Test B flood test rice; type: in vivo, Oryza sativa
How it was run: (§2)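 Plants were grown to the 2-leaf stage before treatment with test chemical, then held in a greenhouse for twelve to sixteen days. Injury was visually rated against untreated controls on a 0–10 scale, where 0 is no effect and 10 is complete control.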

[15] = system: smallflower flatsedge; experiment: Test B flood test smallflower flatsedge; type: in vivo, Cyperus difformis
How it was run: as §2

[16] = system: duck salad; experiment: Test B flood test duck salad; type: in vivo, Heteranthera limosa
How it was run: as §2

[17] = Preemergence, Rate 62 g/ha, scale of 0 to 10 where 0 is no effect and 10 is complete control
[18] = Preemergence, Rate 125 g/ha, 0 is no effect, 10 is complete control
[19] = Preemergence, Rate 250 g/ha, scale 0 to 10, 0 is no effect, 10 is complete control
[20] = Preemergence, Rate 500 g/ha, scale 0 to 10 (0 no effect, 10 complete control)
[21] = Rate 62 g/ha, Postemergence, scale of 0 to 10 where 0 is no effect and 10 is complete control
[22] = Rate 125 g/ha, Postemergence, scale 0 to 10
[23] = Rate 500 g/ha, Postemergence, scale 0 to 10
[24] = Rate 62 g/ha, headed Pre-emergence (flood test species), scale 0 to 10 (0 no effect, 10 complete control)
[25] = Rate 125 g/ha, Pre-emergence, flood test species, scale 0 to 10 where 0 is no effect and 10 is complete control
[26] = Rate 250 g/ha, Pre-emergence, flood-test species, scale 0 to 10, 0 is no effect, 10 is complete control
[27] = Rate 500 g/ha, headed Pre-emergence (flood test species), scale 0 to 10 (0 no effect, 10 complete control)

Cc1ccccc1-n1c(=O)on(C(=O)N(c2ccc(-c3ccccc3)cc2)C(C)C)c1=O [Compound 187]
0: Bedstraw plant response rating [1, 17] | Bedstraw plant response rating (0 to 10 scale) [1, 18] | Bedstraw plant response rating [1, 19] | Bedstraw plant response rating [1, 20] | Bedstraw plant response rating [1, 21] | Bedstraw plant response rating [1, 22] | Plant response rating (0 to 10; 0 is no effect, 10 is complete control), Bedstraw ([1]; Rate 250 g/ha, Postemergence) | Bedstraw plant response rating [1, 23] | Blackgrass plant response rating [2, 17] | Blackgrass plant response rating (0 to 10 scale) [2, 18] | Blackgrass plant response rating [2, 19] | Blackgrass plant response rating [2, 20] | Blackgrass plant response rating [2, 21] | Blackgrass plant response rating [2, 22] | Plant response rating (0 to 10; 0 is no effect, 10 is complete control), Blackgrass ([2]; Rate 250 g/ha, Postemergence) | Blackgrass plant response rating [2, 23] | B. signalgrass plant response rating [3, 17] | B. signalgrass plant response rating (0 to 10 scale) [3, 18] | B. signalgrass plant response rating [3, 19] | B. signalgrass plant response rating [3, 20] | B. signalgrass plant response rating [3, 21] | B. signalgrass plant response rating ([3]; Rate 125 g/ha, Postemergence, scale 0 (no effect) to 10 (complete control)) | Plant response rating, B. signalgrass ([3]; Rate 250 g/ha, Postemergence, scale 0 to 10, 0 is no effect, 10 is complete control) | B. signalgrass plant response rating ([3]; Rate 500 g/ha, Postemergence, scale 0 to 10, 0 no effect, 10 complete control) | Corn plant response rating [4, 17] | Corn plant response rating (0 to 10 scale) [4, 18] | Corn plant response rating [4, 19] | Corn plant response rating [4, 20] | Corn plant response rating [4, 21] | Corn plant response rating [4, 22] | Plant response rating (0 to 10; 0 is no effect, 10 is complete control), Corn ([4]; Rate 250 g/ha, Postemergence) | Corn plant response rating [4, 23] | Crabgrass plant response rating [5, 17] | Crabgrass plant response rating (0 to 10 scale) [5, 18] | Crabgrass plant response rating [5, 19] | Crabgrass plant response rating [5, 20] | Crabgrass plant response rating [5, 21] | Crabgrass plant response rating [5, 22] | Plant response rating (0 to 10; 0 is no effect, 10 is complete control), Crabgrass ([5]; Rate 250 g/ha, Postemergence) | Crabgrass plant response rating [5, 23] | Redroot pigweed plant response rating [6, 17] | Redroot pigweed plant response rating (0 to 10 scale) [6, 18] | Redroot pigweed plant response rating [6, 19] | Redroot pigweed plant response rating [6, 20] | Redroot pigweed plant response rating [6, 21] | Redroot pigweed plant response rating [6, 22] | Plant response rating (0 to 10; 0 is no effect, 10 is complete control), Redroot pigweed ([6]; Rate 250 g/ha, Postemergence) | Redroot pigweed plant response rating [6, 23] | Rape plant response rating [7, 17] | Rape plant response rating (0 to 10 scale) [7, 18] | Rape plant response rating [7, 19] | Rape plant response rating [7, 20] | Rape plant response rating [7, 21] | Rape plant response rating [7, 22] | Plant response rating (0 to 10; 0 is no effect, 10 is complete control), Rape ([7]; Rate 250 g/ha, Postemergence) | Rape plant response rating [7, 23] | Soybean plant response rating [8, 17] | Soybean plant response rating (0 to 10 scale) [8, 18] | Soybean plant response rating [8, 19] | Soybean plant response rating [8, 20] | Soybean plant response rating [8, 21] | Soybean plant response rating [8, 22] | Plant response rating (0 to 10; 0 is no effect, 10 is complete control), Soybean ([8]; Rate 250 g/ha, Postemergence) | Soybean plant response rating [8, 23] | Sugarbeets plant response rating [9, 17] | Sugarbeets plant response rating (0 to 10 scale) [9, 18] | Sugarbeets plant response rating [9, 19] | Sugarbeets plant response rating [9, 20] | Sugarbeets plant response rating [9, 21] | Sugarbeets plant response rating [9, 22] | Plant response rating (0 to 10; 0 is no effect, 10 is complete control), Sugarbeets ([9]; Rate 250 g/ha, Postemergence) | Sugarbeets plant response rating [9, 23] | Velvetleaf plant response rating [10, 17] | Velvetleaf plant response rating [10, 19] | Velvetleaf plant response rating [10, 20] | Velvetleaf plant response rating [10, 21] | Velvetleaf plant response rating [10, 22] | Plant response rating (0 to 10; 0 is no effect, 10 is complete control), Velvetleaf ([10]; Rate 250 g/ha, Postemergence) | Wheat plant response rating [11, 17] | Wheat plant response rating [11, 19] | Wheat plant response rating [11, 20] | Wheat plant response rating [11, 21] | Wheat plant response rating [11, 22] | Plant response rating (0 to 10; 0 is no effect, 10 is complete control), Wheat ([11]; Rate 250 g/ha, Postemergence) | Wild oats plant response rating [12, 17] | Wild oats plant response rating [12, 19] | Wild oats plant response rating [12, 20] | Wild oats plant response rating [12, 21] | Wild oats plant response rating [12, 22] | Plant response rating (0 to 10; 0 is no effect, 10 is complete control), Wild oats ([12]; Rate 250 g/ha, Postemergence) | Nutsedge plant response rating [13, 17] | Nutsedge plant response rating (0 to 10 scale) [13, 18] | Nutsedge plant response rating [13, 19] | Nutsedge plant response rating [13, 20] | Nutsedge plant response rating [13, 21] | Nutsedge plant response rating [13, 22] | Plant response rating (0 to 10; 0 is no effect, 10 is complete control), Nutsedge ([13]; Rate 250 g/ha, Postemergence) | Nutsedge plant response rating [13, 23] | Rice plant response rating [14, 24] | Rice plant response rating [14, 25] | Rice plant response rating [14, 26] | Plant response rating, Rice [14, 27] | S. Flatsedge plant response rating [15, 24] | S. Flatsedge plant response rating [15, 25] | S. Flatsedge plant response rating [15, 26] | S. Flatsedge plant response rating ([15]; Rate 500 g/ha, Pre-emergence, flood test species, scale 0 to 10 (0 no effect, 10 complete control)) | Ducksalad plant response rating [16, 24] | Ducksalad plant response rating [16, 25] | Ducksalad plant response rating [16, 26] | Plant response rating, Ducksalad [16, 27]
